Assay results published in patent US10765680B2, “Combination of a MCL-1 inhibitor and a taxane compound, uses and pharmaceutical compositions thereof” (priority 2017, dated 2020).

Columns and labels:
[1] = system: 2 breast cancer cell lines (MDA-MB-453 and MDA-MB-468) and one lung cancer cell line (H522); experiment: 3 days CellTiterGlo viability, summary of the three cell lines; assay type: cell-based; conditions: for cell lines tested whose growth was inhibited by the single agent: three cell lines tested
Method: (§1) In addition, all media contained penicillin (100 IU/ml), streptomycin (100 μg/ml) and L-glutamine (2 mM).
(§2) Cell lines were cultured at 37° C. in a humidified atmosphere containing 5% CO2 and expanded in T-150 flasks. In all cases cells were thawed from frozen stocks, expanded through ≥1 passage using appropriate dilutions, counted and assessed for viability using a CASY cell counter prior to plating 150 μl/well at the densities indicated in Table 2 into 96-well plates.
(§3) Stock solutions of compounds were prepared at a concentration of 5 mM in DMSO and stored at −20° C.
(§4) In order to analyze the activity of the compounds in single agent or in combination, cells were seeded and treated with seven or eight 3.16-fold serial dilutions of each compound dispensed, either individually or in all possible permutations in a checkerboard fashion, directly into the cell assay plates as indicated in FIGS. 5 and 6. Effects of the single agents as well as their checkerboard combinations on cell viability were assessed after 3 days of incubation at 37° C./5% CO2 by quantification of cellular ATP levels using CellTiterGlo at 75 μL reagent/well. At least two independent experiments, each one performed in duplicates, were performed. Luminescence was quantified on a multipurpose plate reader.
(§5) Single agent IC50s were calculated using standard four-parametric curve fitting. Potential synergistic interactions between compound combinations were assessed using the Excess Inhibition 2D matrix according to the Loewe additivity model and are reported as Synergy Score (Lehar et al. 2009). All calculations were performed using Clalice™ Bioinformatics Software available in Horizon website.

[2] = system: MDA-MB-468 breast cancer cell line; experiment: 3 days CellTiterGlo viability, checkerboard combination, MDA-MB-468; assay type: cell-based; conditions: single agent
Method: as §1, §2, §3, §4, §5

[3] = system: MDA-MB-453 breast cancer cell line; experiment: 3 days CellTiterGlo viability, checkerboard combination, MDA-MB-453; assay type: cell-based; conditions: single agent
Method: as §1, §2, §3, §4, §5

[4] = system: H522 lung cancer cell line; experiment: 3 days CellTiterGlo viability, checkerboard combination, H522; assay type: cell-based; conditions: single agent
Method: as §1, §2, §3, §4, §5

[5] = system: TNBC PDX models 110T, 838T and PDX OD-BRE-0589; conditions: Compound 2 25 mg/kg i.v. weekly for six weeks; three TNBC PDX models
[6] = system: HCC1954 breast cancer cell line; experiment: 72 hours CellTiter-Glo proliferation assay, HCC1954; assay type: cell-based; conditions: Homo sapiens, single agent, read-out: Abs IC50
Method: (§6) Compounds were dissolved in 100% DMSO (Sigma, Catalog # D2438-50 ML) at a stock concentration of 10 mM and stored at −20° C. until use. Compounds were arrayed in 2 ml deep 96-well plates (Greiner bio-one, catalog number 780271) serially diluted 3-fold. Compound 1 was used over a concentration range of 0.0-10.0 μM. Paclitaxel was used over a concentration range of 0.0-1.0 μM in breast cancer cells and 0.0-2.0 μM range in lung cancer cells.
(§7) All cell lines were purchased from the American Type Culture Collection and cultured according to vendor recommendations. […] All cell lines were determined to be free of mycoplasma contamination by a PCR detection assay performed at Idexx Radil (Columbia, Mo., USA) and authenticated by SNP analysis. […] Cells were expanded to T-75 flasks and assessed for viability using a Beckman-Coulter ViCell counter prior to plating. […]
(§8) Cell proliferation was measured in 72 hours CellTiter-Glo™ (CTG) assays and all results shown are the result of at least triplicate measurements. […] After 72 hours of compound treatment the effects of compounds on cell proliferation was determined using the CellTiter-Glo™ Luminescent Cell Viability Assay (Promega, Catalog # G7573). This is a homogeneous method to determine the number of viable cells in culture based on quantitation of the ATP present, which signals the presence of metabolically active cells. […]

[7] = system: NCI-H522 lung cancer cell line; experiment: 72 hours CellTiter-Glo proliferation assay, NCI-H522; assay type: cell-based; conditions: Homo sapiens, single agent, read-out: Abs IC50
Method: as §6, §7, §8

[8] = system: BT-20 breast cancer cell line; experiment: 72 hours CellTiter-Glo proliferation assay, BT-20; assay type: cell-based; conditions: Homo sapiens, single agent, read-out: Abs IC50
Method: as §6, §7, §8

[9] = system: Hs 578T breast cancer cell line; experiment: 72 hours CellTiter-Glo proliferation assay, Hs 578T; assay type: cell-based; conditions: Homo sapiens, single agent, read-out: Abs IC50
Method: as §6, §7, §8

MDA-MB-231 xenografts = experiment: MDA-MB-231 breast xenograft model, antitumor efficacy; assay type: in vivo, female nude rats; conditions: paclitaxel 7.5 mg/kg iv QW
[10] = system: HCC1500 breast cancer cell line; experiment: 72 hours CellTiter-Glo proliferation assay, HCC1500; assay type: cell-based; conditions: single agent, read-out: Abs IC50
Method: as §6, §7, §8

[11] = system: Cal-148 breast cancer cell line; experiment: 72 hours CellTiter-Glo proliferation assay, Cal-148; assay type: cell-based; conditions: Homo sapiens, single agent, read-out: Abs IC50
Method: as §6, §7, §8

[12] = system: BT-474 breast cancer cell line; experiment: 72 hours CellTiter-Glo proliferation assay, BT-474; assay type: cell-based; conditions: Homo sapiens, single agent, read-out: Abs IC50
Method: as §6, §7, §8

[13] = system: MDA-MB-453 breast cancer cell line; experiment: 72 hours CellTiter-Glo proliferation assay, MDA-MB-453; assay type: cell-based; conditions: Homo sapiens, single agent, read-out: Abs IC50
Method: as §6, §7, §8

[14] = system: MCF7 breast cancer cell line; experiment: 72 hours CellTiter-Glo proliferation assay, MCF7; assay type: cell-based; conditions: Homo sapiens, single agent, read-out: Abs IC50
Method: as §6, §7, §8

[15] = system: HCC70 breast cancer cell line; experiment: 72 hours CellTiter-Glo proliferation assay, HCC70; assay type: cell-based; conditions: Homo sapiens, single agent, read-out: Abs IC50
Method: as §6, §7, §8

[16] = system: BT-549 breast cancer cell line; experiment: 72 hours CellTiter-Glo proliferation assay, BT-549; assay type: cell-based; conditions: Homo sapiens, single agent, read-out: Abs IC50
Method: as §6, §7, §8

[17] = system: MDA-MB-157 breast cancer cell line; experiment: 72 hours CellTiter-Glo proliferation assay, MDA-MB-157; assay type: cell-based; conditions: Homo sapiens, single agent, read-out: Abs IC50
Method: as §6, §7, §8

[18] = system: MDA-MB-231 breast cancer cell line; experiment: 72 hours CellTiter-Glo proliferation assay, MDA-MB-231; assay type: cell-based; conditions: Homo sapiens, single agent, read-out: Abs IC50
Method: as §6, §7, §8

[19] = system: MDA-MB-436 breast cancer cell line; experiment: 72 hours CellTiter-Glo proliferation assay, MDA-MB-436; assay type: cell-based; conditions: Homo sapiens, single agent, read-out: Abs IC50
Method: as §6, §7, §8

[20] = system: HCC1937 breast cancer cell line; experiment: 72 hours CellTiter-Glo proliferation assay, HCC1937; assay type: cell-based; conditions: Homo sapiens, single agent, read-out: Abs IC50
Method: as §6, §7, §8

[21] = system: A549 lung cancer cell line; experiment: 72 hours CellTiter-Glo proliferation assay, A549; assay type: cell-based; conditions: Homo sapiens, single agent, read-out: Abs IC50
Method: as §6, §7, §8

[22] = system: SK-BR-3 breast cancer cell line; experiment: 72 hours CellTiter-Glo proliferation assay, SK-BR-3; assay type: cell-based; conditions: Homo sapiens, single agent, read-out: Abs IC50
Method: as §6, §7, §8

[23] = system: NCI-H23 lung cancer cell line; experiment: 72 hours CellTiter-Glo proliferation assay, NCI-H23; assay type: cell-based; conditions: Homo sapiens, single agent, read-out: Abs IC50
Method: as §6, §7, §8

[24] = system: MDA-MB-468 breast cancer cell line; experiment: 72 hours CellTiter-Glo proliferation assay, MDA-MB-468; assay type: cell-based; conditions: Homo sapiens, single agent, read-out: Abs IC50
Method: as §6, §7, §8

[25] = system: HCC1143 breast cancer cell line; experiment: 72 hours CellTiter-Glo proliferation assay, HCC1143; assay type: cell-based; conditions: Homo sapiens, single agent, read-out: Abs IC50
Method: as §6, §7, §8

[26] = system: HCC1395 breast cancer cell line; experiment: 72 hours CellTiter-Glo proliferation assay, HCC1395; assay type: cell-based; conditions: Homo sapiens, single agent, read-out: Abs IC50
Method: as §6, §7, §8

[27] = system: HCC38 breast cancer cell line; experiment: 72 hours CellTiter-Glo proliferation assay, HCC38; assay type: cell-based; conditions: Homo sapiens, single agent, read-out: Abs IC50
Method: as §6, §7, §8

SK-BR-3 cells = experiment: SK-BR-3 viability (Cell Titer Glo, propidium iodide), Bliss synergy; assay type: cell-based; conditions: QVD-OPh 10 μM, propidium iodide staining, 72 hours

Cc1c(-c2c(-c3ccc(F)o3)sc3ncnc(O[C@H](Cc4ccccc4OCc4ccnn4CC(F)(F)F)C(=O)O)c23)ccc(OCCN2CCN(C)CC2)c1Cl [Compound 2, (2R)-2-{[(5Sa)-5-{3-chloro-2-methyl-4-[2-(4-methylpiperazin-1-yl)ethoxy]phenyl}-6-(5-fluorofuran-2-yl)thieno[2,3-d]pyrimidin-4-yl]oxy}-3-(2-{[1-(2,2,2-trifluoroethyl)-1H-pyrazol-5-yl]methoxy}phenyl)propanoic acid]
cell lines tested whose growth was inhibited by the single agent [1]: 1/3 | IC50 [2]: > 2000 nM | Mean of Max Inh [2]: 24.0% | IC50 [3]: > 2000 nM | Mean of Max Inh [3]: 21.0% | Mean of Max Inh ([4]; H522, 3 days): 92.0% | IC50 ([4]; H522 cell line): 140 nM | inhibition of tumor growth, single agent [5]: insufficient in inhibiting tumor growth

CC(=O)O[C@H]1C(=O)[C@@]2(C)[C@H]([C@H](OC(=O)c3ccccc3)[C@]3(O)C[C@H](OC(=O)[C@H](O)[C@@H](NC(=O)c4ccccc4)c4ccccc4)C(C)=C1C3(C)C)[C@]1(OC(C)=O)CO[C@@H]1C[C@@H]2O [Paclitaxel, paclitaxel, reference compound]
IC50 [6]: 6.5 nM | IC50 [7]: 0.48 nM | IC50 [8]: 5.97 nM | IC50 [9]: 0.363 nM | T/C % (MDA-MB-231 xenografts): 34% | IC50 [10]: > 1000 nM | IC50 [11]: 4.25 nM | IC50 [12]: 1.7 nM | IC50 [13]: 4.2 nM | IC50 ([1]; single agent, 2/3 lines tested, read-out: IC50 in the cell lines inhibited): < 1 nM | cell lines tested whose growth was inhibited by the single agent [1]: 2/3 | IC50 [14]: 10.4 nM | IC50 ([2]; Homo sapiens, 72 h): 0.9 nM | Mean of Max Inh [2]: 75.0% | IC50 ([3]; Homo sapiens, 72 h): > 1000 nM | Mean of Max Inh [3]: 37.0% | IC50 [15]: 8.39 nM | IC50 [16]: 8.82 nM | IC50 [17]: > 1000 nM | IC50 [18]: 17.5 nM | IC50 [19]: 14.7 nM | IC50 [20]: 11.6 nM | IC50 [21]: 0.163 nM | IC50 [22]: 2.66 nM | IC50 [23]: 0.22 nM | IC50 [24]: 3.07 nM | IC50 [25]: 9.43 nM | Mean of Max Inh ([4]; H522, 3 days): 61.0% | IC50 ([4]; Homo sapiens, NCI-H522, 72 h, H522, 3 days): 0.2 nM | IC50 [26]: 8.03 nM | IC50 [27]: 4.33 nM

CC(C)[C@H](NC(=O)c1ccc2ccccc2n1)C(=O)N[C@@H](CC(=O)O)C(=O)COc1c(F)cccc1F [QVD-OPH, QVD-OPh hydrate]
effect on cell death induced by docetaxel and Compound 2 (SK-BR-3 cells): efficiently blocked cell death
